The text below walks through data of US6376488B1, “Benzoxazine α-1 adrenergic compounds” (Abbott Laboratories, priority 2000, dated 2002).

Where a name gives a salt, the structure may show the parent alone.

Assay [1] deals with T1, α1a (bovine) adrenoreceptor (Bos taurus, UniProt P18130).
T1 sequence (P18130 1-466): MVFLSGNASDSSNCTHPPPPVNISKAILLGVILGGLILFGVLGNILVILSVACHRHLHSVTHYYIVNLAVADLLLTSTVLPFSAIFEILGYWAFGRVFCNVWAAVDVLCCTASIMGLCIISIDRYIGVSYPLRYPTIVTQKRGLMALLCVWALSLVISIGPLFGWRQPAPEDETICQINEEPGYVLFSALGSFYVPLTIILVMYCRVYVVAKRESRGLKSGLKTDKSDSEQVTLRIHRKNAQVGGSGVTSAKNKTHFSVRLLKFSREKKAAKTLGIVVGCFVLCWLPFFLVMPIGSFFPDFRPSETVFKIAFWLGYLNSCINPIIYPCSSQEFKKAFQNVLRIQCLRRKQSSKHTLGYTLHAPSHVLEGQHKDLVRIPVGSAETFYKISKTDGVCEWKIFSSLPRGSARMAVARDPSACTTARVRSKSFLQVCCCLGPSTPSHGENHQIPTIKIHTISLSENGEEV
Briefly: [3H]-prazosin radioligand binding, cloned α1a (bovine) adrenoreceptor in LTK cells. Conditions: cloned receptor in LTK cell membranes, [3H]prazosin 0.2 nM. On the procedure: (§1) Representative compounds of the invention were evaluated for α adrenoreceptor binding affinity in vitro using [^3H]-prazosin as the radioligand and following four cloned α1, adrenoreceptors expressed in LTK cells: α1a (rat), α1a (bovine), α1b : (hampster), and α1d (rat).
(§2) The cDNA clones encoding the α1, adrenoreceptors were obtained from TULCO (Triangle Universities Licensing Consortium, Research Triangle Park, N.C.) and inserted into the eukaryotic expression vector SnaB30. In this vector, expression of the adrenoreceptor gene is under the transcriptional control of an SV40 early promoter. Positive drug selection is provided by a neomycin-resistance gene. Mouse fibroblast cells (LTK) were transfected with the α1 expression plasmids and grown in Dulbecco's modified Eagle's medium (DMEM) containing 10% fetal calf serum and 30 μM G418. Stable G418-resistant parental lines were generated with successful expression of adrenoreceptor protein monitored using radioligand binding techniques. Stable single cell clones derived from the parental lines were screened in adrenoreceptor binding assays to identify clones having high adrenoreceptor density. Roller bottle cultures of the cloned lines were used to provide cell membranes for subsequent adrenoreceptor binding characterization studies. A cell line containing the SnaB30 vector expressing the human erythropoietin gene served as a negative control.
(§3) For adrenoreceptor binding assays, large scale membrane preparations were utilized in which 6 million cells were seeded into small (450 cm^2) Coming tissue culture roller bottles. DMEM (200 mL) containing 10% fetal calf serum and 300 μM G418 were added to each roller bottle. A 95% air/5% CO2 gas mixture (sterile) was injected into each roller bottle prior to sealing, and the bottles were then incubated at 37° C. on a roller rack for 5 days. Cells were refed with fresh medium after 3 days in culture.
(§4) On the fifth day of culture, growth medium was removed from cells grown in roller bottles, and the cells were washed twice with PBS (Sigma, 120 mM NaCl, 2.7 mM KCl, 10 mM Na2HPO4-NaH2PO4, pH=7.4). Cells were detached from the roller bottles by incubating for 15 minutes at 37° C. in a Tris-EDTA solution (10 mM Tris, 100 mM NaCl, 1 mM EDTA, pH=7.4). The cell suspension from each roller bottle was decanted into tared centrifuge tubes and kept on ice. An aliquot of each cell suspension was generally taken for cell counting. Cells were centrifuged at 3000×G for 5 minutes at 2-4° C., washed with PBS and recentrifuged. The supernatant was decanted, and the pellet was weighed to determine the wet weight of cells. Cells were washed a final time in 40 vol 5 mM Tris-HCl, 5 mM EDTA, pH=7.7 and centrifuged at 40,000×G for 10 minutes (“vol” indicates volume/weight, e.g., a “vol” of 40 would indicate that the one gram of cells were washed with 40 mls of buffer). Cells were homogenized in of 50 mM Tris-HCl, 5 mM EDTA (pH=7.4) (10 mL) and diluted to 40 mL/tube. Homogenates were centrifuged at 40,000×G for 10 minutes. The supernatant was decanted and the pellets rehomogenized in 50 mM Tris-HCl (pH=7.4) and centrifuged as before. The supernatant was decanted and the homogenate was resuspended in 6.25 volumes (per gram wet weight) of 50 mM Tris-HCl and aliquots of the pooled homogenates frozen in liquid N2 and,stored at −70° C. until the time of assay.
(§5) Receptor binding assays for α1 adrenoreceptors were performed essentially as described by Greengrass and Bremner (Eur. J. Pharmacol. 55: 323-326 (1979)). […] Following equilibration, bound radioligand was separated from free on GF/B filters (presoaked in 0.5% polyethyleneimine) using ither a Brandel or Packard cell harvester. Radioactivity was determined by standard liquid scintillation techniques. Data were analyzed as previously described (Hancock, A. A., Kyncl, J. J., Martin, Y. C. and DeBemardis, J. F., J. Receptor Res. 8: 23-46 (1988)). The in Table 1.

The next assay has as its target T2, α1d (rat) adrenoreceptor (Rattus norvegicus, UniProt P23944).
T2 sequence (P23944 1-561): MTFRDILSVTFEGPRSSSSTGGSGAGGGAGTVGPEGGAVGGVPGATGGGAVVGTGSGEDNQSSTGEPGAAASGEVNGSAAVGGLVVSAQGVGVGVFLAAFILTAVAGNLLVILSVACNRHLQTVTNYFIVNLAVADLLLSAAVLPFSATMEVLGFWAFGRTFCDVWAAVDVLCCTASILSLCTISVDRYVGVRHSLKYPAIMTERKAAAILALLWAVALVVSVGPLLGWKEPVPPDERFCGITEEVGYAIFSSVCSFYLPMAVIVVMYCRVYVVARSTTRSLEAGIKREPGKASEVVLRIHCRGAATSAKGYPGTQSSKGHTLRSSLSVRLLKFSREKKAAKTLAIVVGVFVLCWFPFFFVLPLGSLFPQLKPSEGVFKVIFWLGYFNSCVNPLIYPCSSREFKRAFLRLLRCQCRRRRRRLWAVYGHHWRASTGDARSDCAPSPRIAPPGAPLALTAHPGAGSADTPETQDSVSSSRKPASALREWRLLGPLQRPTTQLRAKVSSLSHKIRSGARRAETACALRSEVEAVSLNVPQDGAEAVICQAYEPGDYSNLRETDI
The assay can be described thus: [3H]-prazosin radioligand binding, cloned α1d (rat) adrenoreceptor in LTK cells. The settings on record: cloned receptor in LTK cell membranes, [3H]prazosin 0.2 nM. On the procedure:
as §1, §2, §3, §4, §5

For `Cl.Cl.O=c1[nH]c2c(sc3cccnc32)c(=O)n1CCCCN1CCN2c3ccccc3OCC2C1` (single isomer, unassigned; (+)) [Example 3, (+) 3-[4-(1,2,4a,5-tetrahydropyrazino[2,1-c][1,4]benzoxazin-3(4H)-yl)butyl]pyrido[2′, 3′:4,5]thieno[3,2-d]pyrimidine-2,4(1H,3H)-dione dihydrochloride], the Ki in assay [1] worked out at 2.09 nM; at α1d (rat) adrenoreceptor, 5 nM.
The like results for `COc1cccc2c1N1CCN(CCCCn3c(=O)[nH]c4c(sc5cccnc54)c3=O)CC1CO2` (single isomer, unassigned; (+)) [Example 14, (+) 3-[4-(10-methoxy-1,2,4a,5-tetrahydropyrazino[2,1-c][1,4]benzoxazin-3(4H)-yl)butyl]pyido [2′,3′:4,5]thieno[3,2-d]pyrimidine-2,4(1H,3H)-dione trihydrochloride] were, in that order, 0.243 nM and 2.16 nM.
Take `Cl.Cl.O=c1[nH]c2c(sc3ncccc32)c(=O)n1CCCCN1CCN2c3ccccc3OCC2C1` (single isomer, unassigned; (+)) [Example 5, (+) 3-[4-(1,2,4a,5-tetrahydropyrazino[2,1-c][1,4]benzoxazin-3(4H)-yl)butyl]pyrido[3′, 2′:4,5]thieno[3,2-d]pyrimidine-2,4(1H,3H)-dione dihydrochloride]: the Ki in assay [1] is 2.72 nM; on α1d (rat) adrenoreceptor, 4.26 nM.
On to `Cl.Cl.O=c1[nH]c2c(sc3ncccc32)c(=O)n1CCCCN1CCN2c3ccccc3OCC2C1` (single isomer, unassigned; (-)) [Example 6, (−) 3-[4-(1,2,4a,5-tetrahydropyrazino[2,1-c][1,4]benzoxazin-3(4H)-yl)butyl]pyrido[3′, 2′:4,5]thieno[3,2-d]pyrimidine-2,4(1H,3H)-dione dihydrochloride], for which the Ki was determined as 5.51 nM in assay [1] and 16.9 nM at α1d (rat) adrenoreceptor.
As for `COc1cccc2c1N1CCN(CCCn3c(=O)[nH]c4c(sc5cccnc54)c3=O)CC1CO2.Cl.Cl.Cl` (single isomer, unassigned; (-)) [Example 9, (−) 3-[3-(10-methoxy-1,2,4a,5-tetrahydropyrazino[2,1-c][1,4]benzoxazin-3(4H)-yl)propyl]pyrido[2′,3′:4,5]thieno[3,2-d]pyrimidine-2,4(1H, 3H)-dione trihydrochloride], the Ki in assay [1] was found to be 0.249 nM; on α1d (rat) adrenoreceptor it was 1.28 nM.
Consider `O=c1[nH]c2c(sc3cccnc32)c(=O)n1CCCCN1CCN2c3ccccc3OCC2C1` (single isomer, unassigned; (-)) [Example 4, (−) 3-[4-(1.2,4a,5-tetrahydropyrazino[2,1-c][1,4benzoxazin-3(4H)-yl)butyl]pyrido[2′,3′:4,5]thieno[3,2-d]pyrimidine-2,4(1H,3H)-dione dihydrochloride], for which the Ki in assay [1] came to 3.6 nM; at α1d (rat) adrenoreceptor it was 19.5 nM.
For the compound `COc1cccc2c1N1CCN(CCCCn3c(=O)[nH]c4c(sc5ncccc54)c3=O)CC1CO2.Cl.Cl.Cl` (single isomer, unassigned; (+)) [Example 15, (+) 3-[4-(10-methoxy-1,2,4a,5-tetrahydropyrazino[2,1-c][1,4]benzoxazin-3(4H)-yl)butyl]pyrido[3′,2′:4,5]thieno[3,2-d]pyrimidine-2,4(1H,3H)-dione trihydrochloride], the figures for the Ki (in assay [1]; at α1d (rat) adrenoreceptor) were 0.289 nM and 1.3 nM, respectively.
As for `COc1cccc2c1N1CCN(CCCn3c(=O)[nH]c4c(sc5cccnc54)c3=O)CC1CO2.Cl.Cl.Cl` (single isomer, unassigned; (+)) [Example 17, (+) 3-[3-(10-methoxy-1,2,4a,5-tetrahydropyrazino[2,1-c][1,4]benzoxazin-3(4H)-yl)propyl]pyrido[2′,3′:4,5]thieno[3,2-d]pyrimidine-2,4(1H,3H)-dione trihydrochloride], the Ki in assay [1] is 2.5 nM; on α1d (rat) adrenoreceptor, 20.5 nM.
Take `COc1cccc2c1N1CCN(CCn3c(=O)[nH]c4c(sc5ncc(Cl)nc54)c3=O)CC1CO2.Cl.Cl` (single isomer, unassigned; (+)) [Example 8, (+) 3-[2-(10-methoxy-1,2,4a,5-tetrahydropyrazino[2,1-c][1,4]benzoxazin-3(4H)-yl)ethyl]-8-chloropyrazino[2′,3′:4,5]thieno[3,2-d]pyrimidine-2,4(1H,3H)-dione dihydrochloride]: the values for the Ki (in assay [1]; at α1d (rat) adrenoreceptor) were 0.463 nM and 5.08 nM, respectively.
On the same counts, the results for `COc1cccc2c1N1CCN(CCn3c(=O)[nH]c4c(sc5cccnc54)c3=O)CC1CO2.Cl.Cl.Cl` (single isomer, unassigned; (+)) [Example 16, (+) 3-[2-(10-methoxy-1,2,4a,5-tetrahydropyrazino[2,1-c][1,4]benzoxazin-3(4H)-yl)ethyl]pyrido[2′,3′:4,5]thieno[3,2-d]pyrimidine-2,4(1H,3H)-dione trihydrochloride] are 0.334 nM and 2.01 nM.
As for `Cl.Cl.O=c1[nH]c2c(sc3cccnc32)c(=O)n1CCCN1CCN2c3ccccc3OCC2C1` (single isomer, unassigned; (+)) [Example 1, (+) 3-[3-(1,2,4a,5-tetrahydropyrazino[2,1-c][1,4]benzoxazin-3(4H)-yl)propyl]pyrido[2′,3′:4,5]thieno[3,2-d]pyrimidine-2,4(1H,3H)-dione dihydrochloride], the values for the Ki (in assay [1]; on α1d (rat) adrenoreceptor) were 1.18 nM and 5.89 nM, respectively.
For the compound `COc1cccc2c1N1CCN(CCn3c(=O)[nH]c4c(sc5ncc(Cl)nc54)c3=O)CC1CO2.Cl.Cl` (single isomer, unassigned; (-)) [Example 13, (−) 3-[2-(10-methoxy-1,2,4a,5-tetrahydropyrazino[2,1-c][1,4]benzoxazin-3(4H)-yl)ethyl]-8-chloropyrazino[2′,3′:4,5]thieno[3,2-d]pyrimidine-2,4(1H,3H)-dione dihydrochloride], the Ki in assay [1] was determined as 0.685 nM; at α1d (rat) adrenoreceptor it was 3.52 nM.

For orientation: Ki means the dissociation constant of the complex between target and ligand, obtained from inhibition or displacement. A higher Ki goes with weaker binding.
